Assay results published in US20230109489A1, “Compound and Use Thereof” (FELIQS CORPORATION, priority 2020, published 2023).

Key:
[1] = LO. scavenging ability, liposome-Fe2+ system (Fe stimulation), NBD-TEEPO fluorescence; assay type: biochemical; conditions: for R/L: ratio of activity value (R) of LO. scavenging ability to activity value (L) of LOO. scavenging ability / Fe stimulation (R): activity value of LO. scavenging ability: test compound 10 μmol/l; for Fe stimulation (R): activity value of LO. scavenging ability: FeSO4 1.0 mmol/l, liposomes, 37° C., 180 minutes, 1−(AUCSample/AUCControl)
Description: As described above, the compound of the present invention has alkoxyl radical scavenging ability. The “alkoxyl radical scavenging ability” in the present invention means the ability to scavenge LO., for example. The LO. scavenging ability can be evaluated on the basis of its activity value, for example. The activity value of the LO. scavenging ability can be evaluated, for example, using the liposome-Fe^2+ system disclosed in WO 2019/009355. More specifically, it can be measured in a manner described in Example 1 below. As a specific example, the activity value of the LO. scavenging ability can be measured by performing the following steps (i) to (v): • (i) preparing a buffer solution containing a compound represented by the formula (A) and liposomes; • (ii) adding a divalent iron ion source material; • (iii) adding a test compound; • […] measuring a fluorescence; and • (v) determining the activity value of the test compound as per the following equation using the result of the fluorescence measurement.
Activity value of LO. scavenging ability=1−(AUCSample/AUCControl)
AUCSample: the area under the curve calculated from the fluorescence intensity measured in the presence of Fe^2+ and the test compound (n=1)
AUCControl: the area under the curve calculated from the fluorescence intensity measured in the presence of Fe^2+ and in the absence of the test compound
(§1) In step (i), the concentration of the compound represented by the formula (A) is, for example, 1 to 20 μmol/l and typically 5 μmol/l. The liposomes are prepared from, for example, egg-yolk phosphatidylcholine (Egg PC) and dihexadecyl hydrogen phosphate (DCP). The concentration of the egg-yolk phosphatidylcholine is, for example, 5 to 10 mg/ml and typically 2.5 mg/l. The concentration of the dihexadecyl hydrogen phosphate is, for example, 0.01 to 1 mg/ml and typically 0.1 mg/ml.
In step (ii), the concentration of the divalent iron ion source material is, for example, 0.5 to 5 mmol/l and typically 1 mmol/l. The divalent iron ion source material is, for example, iron(II) sulfate.
In step (iii), the concentration of the test compound is 5 to 100 μmol/l. A specific example of the concentration is 10 μmol/l.
In step (iv), the wavelength of excitation light at the time of measuring the fluorescence can be set to, for example, 470 nm; the fluorescence wavelength can be set to, for example, 530 nm; and the fluorescence intensity at 530 nm can be measured. The period for measuring the fluorescence is, for example, from 0 to 240 minutes at intervals of 0.1 to 5 minutes and typically 180 minutes at intervals of 3 minutes, with step (iii) being the start time, for example.
The following solutions were prepared: a solution A containing liposomes (10 mg/ml Egg PC, 0.4 mg/ml DCP) and 20 μmol/l NBD-TEEPO compound (compound represented by the formula (A)) in phosphate buffer (10 mmol/l, pH 7.4, 2.0% acetonitrile); and a solution B containing 4.0 mmol/l FeSO4 in distilled water. A 10 μl aliquot of each of the solutions A and B was dispensed using a Multidrop Combi (Thermo Fisher Scientific), and these aliquots were mixed together. The final concentrations of the respective components in the phosphate buffer (10 mmol/l, pH 7.4, 0.5% acetonitrile, 1% dimethyl sulfoxide (DMSO)) were as follows: the liposomes (2.5 mg/ml Egg PC, 0.1 mg/ml DCP), the NBD-TEEPO compound (5.0 μmol/l), a test compound (10 μmol/l), and FeSO4 (1.0 mmol/l). As the test compound, the compounds represented by the formulae (3) to (5) and (7) to (10) were used as compounds of examples, the compound (methyldopa) represented by the formula (1a) was used as a compound of a comparative example, and edaravone and a SCREEN-WELL® FDA-approved drug library (Enzo Life Sciences) were used as reference examples. The test compounds were dissolved in DMSO. […]

[2] = LOO. scavenging ability, liposome-AAPH system (AAPH stimulation), NBD-TEEPO fluorescence; assay type: biochemical; parameters: key: activity = 1 − (FluSample−FluBackground)/(FluControl−FluBackground); conditions: test compound 10 μmol/l, AAPH 20 mmol/l, liposomes, 37° C., after 40 minutes
Description: As described above, the compound of the present invention has peroxyl radical scavenging ability. “Peroxyl radical scavenging ability” in the present invention means the ability to scavenge LOO., for example. The LOO. scavenging ability can be evaluated on the basis of its activity value, for example. The activity value of the LOO. scavenging ability can be evaluated using, for example, the liposome-AAPH (2,2′-azobis(2-amidinopropane)dihydrochloride) system disclosed in WO 2019/009355. More specifically, it can be measured in a manner described in Example 1 below. As a specific example, the activity value of the LOO. scavenging ability can be measured by performing the following steps (vi) to (x): • (vi) preparing a buffer solution containing a compound represented by the formula (A) and liposomes; • (vii) adding 2,2′-azobis(2-amidinopropane)dihydrochloride; • (viii) adding a test compound; • […] measuring a fluorescence; and • (x) determining the activity value of the test compound as per the following equation using the result of the fluorescence measurement.
Activity value of LOO. scavenging ability=1−(FluSample−FluBackground)/(FluControl−FluBackground)
Flusampie: the fluorescence intensity measured in the presence of AAPH and the test compound (n=1)
FluBackground: the fluorescence intensity measured in the absence of AAPH
FluControl: the fluorescence intensity measured in the presence of AAPH and in the absence of the test compound
as §1, with “(vi),” for “(i),”, “phosphatidylcholine” for “phosphatidylcholine (Egg PC)”, “phosphate.” for “phosphate (DCP).”, “mg/ml.” for “mg/l.”
In step (vii), the concentration of AAPH is, for example, 5 to 50 mmol/l and typically 20 mmol/l.
In step (viii), the concentration of the test compound is 5 to 100 μmol/l. A specific example of the concentration is 10 μmol/l.
In step (ix), the wavelength of excitation light at the time of measuring the fluorescence can be set to, for example, 470 nm; the fluorescence wavelength can be set to, for example, 530 nm; and the fluorescence intensity at 530 nm can be measured. The measurement of the fluorescence is performed, for example, after 1 to 120 minutes has elapsed and typically after 30 to 40 minutes has elapsed since step (viii).
The following solutions were prepared: a solution A containing liposomes (10 mg/ml Egg PC, 0.4 mg/ml DCP) and NBD-TEEPO compound (20 μmol/l) in phosphate buffer (10 mmol/l, pH 7.4, 2.0% acetonitrile); and a solution B containing 80 mmol/l AAPH in phosphate buffer (10 mmol/l, pH 7.4). A 10 μl aliquot of each of the solutions A and B was dispensed using a Multidrop Combi, and these aliquots were mixed together. The final concentrations of the respective components in the phosphate buffer (10 mmol/l, pH 7.4, 0.5% acetonitrile, 1% DMSO) were as follows: the liposomes (2.5 mg/ml Egg PC, 0.1 mg/ml DCP), the NBD-TEEPO compound (5.0 μmol/l), each of the test compounds (10 μmol/l), and AAPH (20 mmol/l).
While incubating the thus-obtained mixture at 37° C., the fluorescence intensity was measured after 40 minutes had elapsed since the mixing of the components. The fluorescence intensity was measured at an excitation wavelength of 470 nm and a fluorescence wavelength of 530 nm. Then, on the basis of the thus-measured fluorescence intensities, the activity value of the LOO. scavenging ability was calculated as per the above-described equation.

Structure (SMILES) | R/L: ratio of activity value (R) of LO. scavenging ability to activity value (L) of LOO. scavenging ability [1] | Fe stimulation (R): activity value of LO. scavenging ability [1] | AAPH stimulation (L): activity value of LOO. scavenging ability [2] | balance between the LO. scavenging ability and the LOO. scavenging ability (result in words) [1]
CC(C)COC(=O)[C@@](C)(N)Cc1ccc(O)c(O)c1 [Formula (5), isobutyl (S)-2-amino-3-(3,4-dihydroxyphenyl)-2-methylpropanoate] | 1.19 | 0.539 | 0.452 | 
CC1=NN(c2ccccc2)C(=O)C1 [Edaravone, 5-methyl-2-phenyl-2,4-dihydro-3H-pyrazol-3-one, reference compound] | 0.98 | 0.288 | 0.293 | approximately the same level of scavenging ability against LO. and LOO.
CCCOC(=O)[C@@](C)(N)Cc1ccc(O)c(O)c1 [Formula (7), propyl (S)-2-amino-3-(3,4-dihydroxyphenyl)-2-methylpropanoate] | 0.88 | 0.454 | 0.517 | 
CCC(C)OC(=O)[C@@](C)(N)Cc1ccc(O)c(O)c1 (stereo partly drawn) [Formula (3), s-butyl (2S)-2-amino-3-(3,4-dihydroxyphenyl)-2-methylpropanoate] | 1.04 | 0.754 | 0.726 | 
CCCCOC(=O)[C@@](C)(N)Cc1ccc(O)c(O)c1 [Formula (9), butyl (S)-2-amino-3-(3,4-dihydroxyphenyl)-2-methylpropanoate] | 1.04 | 0.313 | 0.301 | 
CCOC(=O)[C@@](C)(N)Cc1ccc(O)c(O)c1 [(10)] | 0.78 | 0.517 | 0.663 | 
CC(C)(C)OC(=O)[C@@](C)(N)Cc1ccc(O)c(O)c1 [Formula (4), t-butyl (S)-2-amino-3-(3,4-dihydroxyphenyl)-2-methylpropanoate] | 1.07 | 0.654 | 0.610 | 
CC(C)OC(=O)[C@@](C)(N)Cc1ccc(O)c(O)c1 [Formula (8), isopropyl (S)-2-amino-3-(3,4-dihydroxyphenyl)-2-methylpropanoate] | 0.95 | 0.327 | 0.346 | 
